In patent publication US20240148821A1, “PHARMACEUTICAL USE OF CYCLIC PEPTIDE COMPOUND” (CHUGAI SEIYAKU KABUSHIKI KAISHA, priority 2021, published 2024):
Numbered stars: 1 amine (or outer) side, 2 acyl side, 3 side chain; on linkers, the order of the positions; unused ones are H or OH. Bridge positions count the residues as written; N and C are the ends. Square brackets hold non-standard residues; d marks the D form. Peptide text beside a SMILES is read from it. * marks the point of attachment. hPhe(3-Cl-4-CF3) = N[C@@H](CCc1ccc(C(F)(F)F)c(Cl)c1)C(=O)O; hPhe(4-CF3) = N[C@@H](CCc1ccc(C(F)(F)F)cc1)C(=O)O; X118 = O=C([C@H](CCc1c(F)cc(F)cc1F)N[*:1])[*:2]; X102 = O=C([C@H](CCOc1ccc(Cl)cc1)N[*:1])[*:2]; NMePhe(4-Cl) = CN[C@@H](Cc1ccc(Cl)cc1)C(=O)O; X30 = O=C([C@H](CCc1ccc(Cl)cc1F)N[*:1])[*:2]; NEtPhe(2-Cl) = CCN[C@@H](Cc1ccccc1Cl)C(=O)O; NMePhe(4-Me) = CN[C@@H](Cc1ccc(C)cc1)C(=O)O; X5 = CCN([C@@H](CC1CCCCC1)C(=O)[*:2])[*:1]; X67 = O=C([C@@H]1CCC[C@H]1N[*:1])[*:2]; dβ3hPip = O=C(C[C@H]1CCCCN1[*:1])[*:2]; NMeCha = CN[C@@H](CC1CCCCC1)C(=O)O; Hyp = O=C(O)[C@@H]1C[C@@H](O)CN1; NMeChg = CN[C@H](C(=O)O)C1CCCCC1; NMeF = CN[C@@H](Cc1ccccc1)C(=O)O; NMeI = CC[C@H](C)[C@H](NC)C(=O)O; N(CH2CH2)2CF2 = FC1(F)CCN(*)CC1; NMeD = CN[C@@H](CC(=O)O)C(=O)O; NMeL = CN[C@@H](CC(C)C)C(=O)O; NMeV = CN[C@H](C(=O)O)C(C)C; d(β3hA) = C[C@@H](N)CC(=O)O; NMeA = CN[C@@H](C)C(=O)O; Piperidide = C1CCN(*)CC1; Ac5c = NC1(C(=O)O)CCCC1; Aze = O=C(O)[C@@H]1CCN1; X9 = c1cncc(C*)c1; Sar = CNCC(=O)O

Biological target: protein-protein interaction between Kras and SOS1 (biotin-tagged human Kras loaded with GDP, His-tagged human SOS1) (Homo sapiens (Human), UniProt P01116, G12D)
Test: Protein-protein interaction inhibition between Kras and SOS1 (KrasG12D-SOS PPI) using AlphaScreen;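 further: kras produced in E. coli, Ni-coupled donor beads and streptavidin acceptor beads, excitation 680 nm with emission detected at 520–620 nm via singlet oxygen transfer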
Format: biochemical
Settings: AlphaScreen; biotin-tagged human Kras loaded with GDP, His-tagged human SOS1; read-out: KRAS G12D-SOS PPI IC50

SMILES	IC50 [nM]
CC[C@H](C)[C@@H]1NC(=O)[C@H](C)N(C)C(=O)C[C@@H](C)NC(=O)[C@H](CC(C)C)N(C)C(=O)[C@H](Cc2ccccc2)N(C)C(=O)[C@H](CC(C)C)NC(=O)[C@H](CCc2ccc(Cl)cc2F)NC(=O)CN(C)C(=O)[C@H](Cc2ccc(Cl)cc2)N(C)C(=O)CN(C)C(=O)CN(C)C1=O [Compound 2086] (cyclo(I[Sar][Sar][NMePhe(4-Cl)][Sar][X30]L[NMeF][NMeL][d(β3hA)][NMeA]))	100
CC[C@H](C)[C@@H]1NC(=O)[C@H](C)N(C)C(=O)C[C@@H](C)NC(=O)[C@H](CC(C)C)N(C)C(=O)[C@H](Cc2ccccc2)N(C)C(=O)[C@H](CC(C)C)NC(=O)[C@H](CCc2c(F)cc(F)cc2F)NC(=O)CN(C)C(=O)[C@H](Cc2ccc(Cl)cc2)N(C)C(=O)CN(C)C(=O)CN(C)C1=O [Compound 2090] (cyclo(I[Sar][Sar][NMePhe(4-Cl)][Sar][X118]L[NMeF][NMeL][d(β3hA)][NMeA]))	380
CC[C@H](C)[C@@H]1NC(=O)[C@H](C)N(C)C(=O)C[C@@H](C(=O)N2CCCCC2)N(C)C(=O)[C@H](C(C)C)N(C)C(=O)C2(CCCC2)NC(=O)[C@H](Cc2ccccc2Cl)N(CC)C(=O)[C@H](CCc2ccc(C(F)(F)F)c(Cl)c2)NC(=O)CN(C)C(=O)[C@H](Cc2ccc(C)cc2)N(C)C(=O)CN(C)C(=O)CN(C)C1=O [Compound 2166] ([NMeA]I[Sar][Sar][NMePhe(4-Me)][Sar][hPhe(3-Cl-4-CF3)][NEtPhe(2-Cl)][Ac5c][NMeV][NMeD]-Piperidide; lactam N-11)	330
CC[C@H](C)[C@@H]1NC(=O)[C@H](CC(C)C)N(C)C(=O)C[C@@H](C(=O)N(C)C)N(C)C(=O)[C@H]([C@@H](C)CC)N(C)C(=O)CNC(=O)[C@@H]2CCCN2C(=O)[C@H](CCc2ccc(C(F)(F)F)c(Cl)c2)NC(=O)CN(C)C(=O)[C@H](Cc2ccc(C)cc2)N(C)C(=O)[C@@H]2CCN2C(=O)[C@H](C)N(C)C1=O [Compound 828] ([NMeL]I[NMeA][Aze][NMePhe(4-Me)][Sar][hPhe(3-Cl-4-CF3)]PG[NMeI][NMeD]-NMe2; lactam N-11)	40
CC[C@H](C)[C@@H]1NC(=O)[C@H](CC(C)C)N(C)C(=O)C[C@@H](C(=O)N2CCCCC2)N(C)C(=O)[C@H]([C@@H](C)CC)N(C)C(=O)C2(CCCC2)NC(=O)[C@@H]2CCCN2C(=O)[C@H](CCc2ccc(C(F)(F)F)c(Cl)c2)NC(=O)CN(C)C(=O)[C@H](CC2CCCCC2)N(C)C(=O)[C@@H]2CCN2C(=O)[C@H](C)N(C)C1=O [Compound 1722] ([NMeL]I[NMeA][Aze][NMeCha][Sar][hPhe(3-Cl-4-CF3)]P[Ac5c][NMeI][NMeD]-Piperidide; lactam N-11)	2.8
CC[C@H](C)[C@@H]1NC(=O)[C@H](CC(C)C)N(C)C(=O)C[C@@H](C(=O)N2CCCCC2)N(C)C(=O)[C@H](C(C)C)N(C)C(=O)[C@H](C(C)C)NC(=O)[C@H](CC(=O)N2CCC(F)(F)CC2)N(C)C(=O)[C@H](CCc2ccc(C(F)(F)F)c(Cl)c2)NC(=O)CN(C)C(=O)[C@H](CC2CCCCC2)N(C)C(=O)CN(C)C(=O)CN(C)C1=O [Compound 1078] ([NMeL]I[Sar][Sar][NMeCha][Sar][hPhe(3-Cl-4-CF3)][NMeD](N(CH2CH2)2CF2)V[NMeV][NMeD]-Piperidide; lactam N-11)	190
CC[C@H](C)[C@@H]1NC(=O)[C@H](C)N(C)C(=O)C[C@@H](C(=O)N2CCCCC2)N(C)C(=O)[C@H](C2CCCCC2)N(C)C(=O)C2(CCCC2)NC(=O)[C@@H]2CCCN2C(=O)[C@H](CCOc2ccc(Cl)cc2)NC(=O)CN(C)C(=O)[C@H](CC2CCCCC2)N(C)C(=O)CN(C)C(=O)CN(C)C1=O [Compound 2040, (3S,9S,18S,21S,25S,28S,34S)-3-[2-(4-chlorophenoxy)ethyl]-28-cyclohexyl-9-(cyclohexylmethyl)-7,10,13,16,21,22,26,29-octamethyl-18-[(1S)-1-methylpropyl]-25-(piperidine-1-carbonyl)spiro[1,4,7,10,13,16,19,22,26,29,32-undecazabicyclo[32.3.0]heptatriacontane-31,1-cyclopentane]-2,5,8,11,14,17,20,23,27,30,33-undecone] ([NMeA]I[Sar][Sar][NMeCha][Sar][X102]P[Ac5c][NMeChg][NMeD]-Piperidide; lactam N-11)	150
CC[C@H](C)[C@@H]1NC(=O)[C@H](C)N(C)C(=O)C[C@H]2CCCCN2C(=O)[C@H](C(C)C)N(C)C(=O)[C@H](Cc2ccccc2)N(C)C(=O)[C@H](CC(C)C)N(C)C(=O)[C@H](CCc2ccc(C(F)(F)F)cc2)NC(=O)CN(C)C(=O)[C@H](Cc2ccc(Cl)cc2)N(C)C(=O)CN(C)C(=O)CN(C)C1=O [Compound 512] (cyclo(I[Sar][Sar][NMePhe(4-Cl)][Sar][hPhe(4-CF3)][NMeL][NMeF][NMeV][dβ3hPip][NMeA]))	150
CC[C@H](C)[C@@H]1NC(=O)[C@H](CC(C)C)N(C)C(=O)C[C@@H](C(=O)N2CCCCC2)N(C)C(=O)[C@H](C2CCCCC2)N(C)C(=O)C2(CCCC2)NC(=O)[C@@H]2C[C@@H](OCc3cccnc3)CN2C(=O)[C@H](CCc2ccc(C(F)(F)F)c(Cl)c2)NC(=O)CN(C)C(=O)[C@H](CC2CCCCC2)N(C)C(=O)CN(C)C(=O)CN(C)C1=O [Compound 2121] ([NMeL]I[Sar][Sar][NMeCha][Sar][hPhe(3-Cl-4-CF3)][Hyp](X9)[Ac5c][NMeChg][NMeD]-Piperidide; lactam N-11)	0.56
CC[C@H](C)[C@@H]1NC(=O)[C@H](C(C)C)N(C)C(=O)[C@@H]2CCC[C@H]2NC(=O)[C@H](CC(C)C)N(C)C(=O)C2(CCCC2)NC(=O)[C@H](CC(C)C)N(C)C(=O)[C@H](CCc2ccc(C(F)(F)F)cc2)NC(=O)CN(C)C(=O)[C@H](Cc2ccc(Cl)cc2)N(C)C(=O)CN(C)C(=O)CN(C)C1=O [Compound 996] (cyclo([Ac5c][NMeL][X67][NMeV]I[Sar][Sar][NMePhe(4-Cl)][Sar][hPhe(4-CF3)][NMeL]))	90
CC[C@H](C)[C@@H]1NC(=O)[C@H](CC(C)C)N(C)C(=O)C[C@@H](C)NC(=O)[C@H](C(C)C)N(C)C(=O)C2(CCCC2)NC(=O)[C@@H]2CCCN2C(=O)[C@H](CCc2ccc(C(F)(F)F)c(Cl)c2)NC(=O)CN(C)C(=O)[C@H](Cc2ccc(Cl)cc2)N(C)C(=O)[C@@H]2CCN2C(=O)[C@H](C)N(C)C1=O [Compound 1018] (cyclo([Ac5c][NMeV][d(β3hA)][NMeL]I[NMeA][Aze][NMePhe(4-Cl)][Sar][hPhe(3-Cl-4-CF3)]P))	11
CC[C@H](C)[C@@H]1NC(=O)[C@H](CC(C)C)N(C)C(=O)C[C@@H](C(=O)N2CCCCC2)N(C)C(=O)[C@H](C(C)C)N(C)C(=O)C2(CCCC2)NC(=O)[C@@H]2CCCN2C(=O)[C@H](CCc2ccc(C(F)(F)F)c(Cl)c2)NC(=O)CN(C)C(=O)[C@H](CC2CCCCC2)N(CC)C(=O)[C@@H]2CCN2C(=O)[C@H](C)N(C)C1=O [Compound 23] ([NMeL]I[NMeA][Aze][X5][Sar][hPhe(3-Cl-4-CF3)]P[Ac5c][NMeV][NMeD]-Piperidide; lactam N-11)	2.7
